Assay results taken from PubChem BioAssay AID602437 (Southern Research Specialized Biocontainment Screening …, 2012).
“And” between values parts separate entries of the source, which are not always exact repeats. Equal values may be shown once. The source made the active and inactive calls. No rule for the calls is given here.

What was measured:
[1] = system: M. tuberculosis H37Rv growth inhibition, no glycerol; assay: H37Rv growth blockers, purified and synthesized samples, set 8, confirmation (AID 602437); conditions: for IC50: measured here: IC50 replicates
[2] = as above; conditions: M. tuberculosis H37Rv growth inhibition, no glycerol; at 100 µM (top of the series)

Q: For O=C(c1ccc(CNc2c(N3CCOCC3)c(=O)c2=O)cc1)N1CC=C(c2ccccc2)CC1, which IC90 [1] is on record?
A: The IC90 was 8.36 µM.

Q: What about the IC50 [1] of the same molecule?
A: Its IC50 is 1.71 µM.

Q: For COC(=O)C(Cc1ccccc1)NC(=O)CSc1nc2ccccc2c(=O)[nH]1 (stereo not given), which inhibition [2] is on record?
A: The inhibition was 2.32% (inactive).

Q: With CC(C)CCNC(=O)CSc1nc2c(c(=O)[nH]1)CCCCC2 as the molecule, how does the IC50 [1] read?
A: Its IC50 is 99.2 µM.

Q: For COc1ccc(N2CCN(C(=O)c3ccc(CNc4c(N5CCOCC5)c(=O)c4=O)cc3)CC2)cc1, which IC50 [1] is on record?
A: The IC50 was 8.95 µM and 8.65 µM.

Q: With CC1CCN(C(=O)c2ccc(CNc3c(N4CCCC4)c(=O)c3=O)cc2)CC1 as the molecule, how does the IC50 [1] read?
A: The IC50 was 10.1 µM.

Q: Which IC50 [1] does the source give for CC1CCCN(C(=O)C2CCC(CNc3c(N4CCCCC4)c(=O)c3=O)CC2)C1 (stereo not given) here?
A: Its IC50 is 34.9 µM.

Q: With CC(C)CCNC(=O)CSc1nc2ccccc2c(=O)[nH]1 as the molecule, how does the IC90 [1] read?
A: The IC90 was 1.01 µM.

Q: And the IC50 [1]?
A: Its IC50 is 0.651 µM.

Q: Which IC90 [1] does the source give for CC(C)CCNC(=O)CSc1nc2c(c(=O)[nH]1)CCCC2 here?
A: Its IC90 is 6.58 µM.

Q: And the IC50 [1]?
A: Its IC50 is 4.43 µM.

Q: With CCOC(=O)CSc1ncnc2c1cnn2-c1ccc(C)cc1C as the molecule, how does the IC90 [1] read?
A: The IC90 was 4.58 µM.

Q: What about the IC50 [1] of the same molecule?
A: The IC50 was 2.64 µM.

Q: Which results are given for O=C(NCc1ccc(C(=O)N2CCC(c3ccccc3)CC2)cc1)Nc1ccc(Cl)cc1?
A: IC90 [1]: 92.5 µM; IC50 [1]: 72.2 µM

Q: With O=C(CSc1nc2c(c(=O)[nH]1)CN(Cc1ccccc1)CC2)NC1CCCCC1 as the molecule, how does the inhibition [2] read?
A: The inhibition was -4.57% (inactive).

Q: For O=C(c1ccc(CNc2c(N3CCOCC3)c(=O)c2=O)cc1)N1CCN(c2ccccc2)CC1, which IC50 [1] is on record?
A: The IC50 was 3.8 µM.

Q: Which results are given for Cc1cccc(N2CCN(C(=O)c3ccc(CNc4c(N5CCC(C)CC5)c(=O)c4=O)cc3)CC2)c1C?
A: IC90 [1]: 56.9 µM; IC50 [1]: 42.1 µM

Q: Which IC50 [1] does the source give for CCOC(=O)N1CCC(Nc2c(Nc3cccc(CC)c3)c(=O)c2=O)CC1 here?
A: Its IC50 is 36.5 µM.

Q: For O=C(NCCc1ccc(Cl)cc1)C1CCC(CNc2c(N3CCCCC3)c(=O)c2=O)CC1 (stereo not given), which IC50 [1] is on record?
A: The IC50 was 17.6 µM.

Q: With CC1CC(C)CN(C(=O)c2ccc(CNc3c(N4CCCC4)c(=O)c3=O)cc2)C1 (stereo not given) as the molecule, how does the IC50 [1] read?
A: The IC50 was 12.8 µM.

Q: With CC(=O)c1ccc(NC(=O)c2ccc(CNc3c(N4CCOCC4)c(=O)c3=O)cc2)cc1 as the molecule, how does the IC50 [1] read?
A: The IC50 was 63.7 µM.

Q: Which IC90 [1] does the source give for CC1CCCN(c2c(NCc3ccc(C(=O)N4CC=C(c5ccccc5)CC4)cc3)c(=O)c2=O)C1 (stereo not given) here?
A: Its IC90 is 9.7 µM.

Q: What about the IC50 [1] of the same molecule?
A: Its IC50 is 7.72 µM.

Q: With CCOc1ccc(NC(=O)c2ccc(CNc3c(N4CCCC4)c(=O)c3=O)cc2)cc1 as the molecule, how does the inhibition [2] read?
A: Its inhibition is -0.36% (inactive).

Q: Which IC50 [1] does the source give for O=C(NCCc1ccc(Cl)cc1)c1ccc(CNc2c(N3CCOCC3)c(=O)c2=O)cc1 here?
A: The IC50 was 5.66 µM and 14.4 µM.

Q: With O=C(c1ccc(CNc2c(N3CCCC3)c(=O)c2=O)cc1)N1CC=C(c2ccccc2)CC1 as the molecule, how does the IC50 [1] read?
A: The IC50 was 4.52 µM and 4.4 µM.

Q: Which IC90 [1] does the source give for O=C(CSc1nc2ccccc2c(=O)[nH]1)NC1CCOCC1 here?
A: The IC90 was 33.8 µM.

Q: What about the IC50 [1] of the same molecule?
A: The IC50 was 20.5 µM.

Q: With O=C(c1ccc(CNc2c(N3CCCC3)c(=O)c2=O)cc1)N1CCN(c2ccccc2)CC1 as the molecule, how does the IC50 [1] read?
A: Its IC50 is 70.2 µM.

Q: Which inhibition [2] does the source give for COCCNC(=O)CSc1nc2ccccc2c(=O)[nH]1 here?
A: Its inhibition is -10.3% (inactive).

Q: For Cc1cccc(N2CCN(C(=O)c3ccc(CNc4c(N5CCC(C)CC5)c(=O)c4=O)cc3)CC2C)c1 (stereo not given), which IC90 [1] is on record?
A: Its IC90 is 46.3 µM.

Q: And the IC50 [1]?
A: The IC50 was 27.7 µM.

Q: For O=C(c1ccc(CNc2c(N3CCOCC3)c(=O)c2=O)cc1)N1CCC(c2ccccc2)CC1, which IC50 [1] is on record?
A: Its IC50 is 3.56 µM.

Q: What does the source list for COc1ccc(N2CCN(C(=O)c3ccc(CNc4c(N5CCCC(C)C5)c(=O)c4=O)cc3)CC2)cc1 (stereo not given)?
A: IC90 [1]: 41.4 µM; IC50 [1]: 25.4 µM

Q: With O=C(NCc1ccc(C(=O)N2CCN(c3ccccc3)CC2)cc1)NC1CCCCC1 as the molecule, how does the inhibition [2] read?
A: The inhibition was 2.51% (inactive).

Q: Which IC50 [1] does the source give for O=C(C1CCC(CNc2c(N3CCCCC3)c(=O)c2=O)CC1)N1CCCCC1 (stereo not given) here?
A: Its IC50 is 27.5 µM.

Q: Which inhibition [2] does the source give for COc1ccc(N2CCN(C(=O)c3ccc(CNC(=O)NCc4ccc(Cl)cc4)cc3)CC2)cc1 here?
A: The inhibition was 2.39% (inactive).

Q: For O=C(c1ccc(CNc2c(N3CCCC3)c(=O)c2=O)cc1)N1CCc2ccccc2C1, which IC50 [1] is on record?
A: The IC50 was 7.79 µM.

Q: Which IC90 [1] does the source give for COC(=O)CSc1ncnc2c1cnn2-c1ccc(C)cc1C here?
A: Its IC90 is 3.71 µM.

Q: And the IC50 [1]?
A: The IC50 was 2.78 µM.

Q: Which results are given for CCOC(=O)CSc1ncnc2c1cnn2-c1ccccc1?
A: IC90 [1]: 9.98 µM; IC50 [1]: 4.02 µM

Q: For O=C(c1ccc(CNc2c(N3CCCC3)c(=O)c2=O)cc1)N1CCC(c2ccccc2)CC1, which IC50 [1] is on record?
A: The IC50 was 76.1 µM.

Q: For O=C(NCc1ccc(C(=O)N2CCC(c3ccccc3)CC2)cc1)NC1CCCCC1, which IC90 [1] is on record?
A: Its IC90 is 86.4 µM.

Q: And the IC50 [1]?
A: Its IC50 is 67.7 µM.

Q: With COc1ccc(NC(=O)NCc2ccc(C(=O)N3CCC(c4ccccc4)CC3)cc2)cc1 as the molecule, how does the inhibition [2] read?
A: Its inhibition is 14% (inactive).

Q: With O=C(CSc1nc2ccccc2c(=O)[nH]1)NC1CCCCC1 as the molecule, how does the IC90 [1] read?
A: The IC90 was under 0.27 µM.

Q: And the IC50 [1]?
A: Its IC50 is 0.204 µM.

Q: With O=C(CSc1nc2c(c(=O)[nH]1)CCC2)NC1CCCCC1 as the molecule, how does the IC90 [1] read?
A: The IC90 was 3.23 µM.

Q: And the IC50 [1]?
A: Its IC50 is 2.24 µM.

Q: Which IC50 [1] does the source give for CC(C)OC(=O)CSc1ncnc2c1cnn2-c1ccccc1 here?
A: Its IC50 is 12 µM.

Q: Which IC90 [1] does the source give for O=C(CSc1nc2c(c(=O)[nH]1)CCCC2)NC1CCCCC1 here?
A: The IC90 was 3.45 µM.

Q: And the IC50 [1]?
A: Its IC50 is 2.3 µM.

Q: With CC1CCCN(C(=O)c2ccc(CNc3c(N4CCCCC4)c(=O)c3=O)cc2)C1 (stereo not given) as the molecule, how does the IC50 [1] read?
A: The IC50 was 5.73 µM.

Q: With CC1CC(C)CN(C(=O)C2CCC(CNc3c(N4CCCCC4)c(=O)c3=O)CC2)C1 (stereo not given) as the molecule, how does the IC50 [1] read?
A: Its IC50 is 7.79 µM and 24.7 µM.

Q: Which results are given for CCC(C)NC(=O)CSc1nc2ccccc2c(=O)[nH]1 (stereo not given)?
A: IC90 [1]: 7.63 µM; IC50 [1]: 4.95 µM
